ChEMBL document CHEMBL1123229, “A molecular mechanics approach to the understanding of presynaptic selectivity for centrally acting dopamine receptor agonists of the phenylpiperidine series” (1986)
Activity calls are given as the source filed them. The rule behind the calls is not given here.

Tests used:
Rattus norvegicus [1] = organism: Rattus norvegicus; assay: Dose required for postsynaptic agonism using motor activity test in reserpinized rats; type: functional
Rattus norvegicus [2] = organism: Rattus norvegicus; assay: Postsynaptic agonistic activity using motor activity test in reserpinized rats per 30 min; type: functional
Rattus norvegicus [3] = organism: Rattus norvegicus; assay: Compound was evaluated for postsynaptic agonistic activity using motor activity test in reserpinized rats per 30 min; ns= Not significant; type: functional
[4] = molecular target: T1, Dopamine receptor (Rattus norvegicus) (UniProt P25115+P19020+P30729+P18901+P61169); assay: Compound was tested or presynaptic agonistic activity against dopamine receptor in striatum; I= Inactive; type: functional, tissue-based
[5] = molecular target: T1, Dopamine receptor (Rattus norvegicus); assay: Compound was tested for presynaptic agonistic activity against dopamine receptor in limbic system; I= Inactive; type: functional, tissue-based
Rattus norvegicus [6] = assay: Dose required for postsynaptic agonism using motor activity test in reserpinized rats; I= Inactive at 2 umol/kg; type: functional, organism-based
[7] = molecular target: T1, Dopamine receptor (Rattus norvegicus); assay: Compound was tested or presynaptic agonistic activity against dopamine receptor in striatum; Inactive; type: functional, tissue-based
[8] = molecular target: T1, Dopamine receptor (Rattus norvegicus); assay: Compound was tested for presynaptic agonistic activity against dopamine receptor in limbic system; Inactive; type: functional, tissue-based

| Structure (SMILES) | Dose (Rattus norvegicus [1]) | Acc. counts (Rattus norvegicus [2]) | further results |
| --- | --- | --- | --- |
| CCCN1CCC[C@@H](c2cccc(O)c2)C1 [PRECLAMOL] | 213 µM/kg | 12 |  |
| CN1CCc2cccc3c2[C@H]1Cc1ccc(O)c(O)c1-3 [APOMORPHINE] | 2.3 µM/kg | 361 |  |
| Oc1ccc2c(c1)C1CCCNC1CC2 (configuration not stated) | 106 µM/kg |  | Acc. counts (Rattus norvegicus [3]): 10 |
| CCCN1CCC[C@@H]2c3cc(O)ccc3CC[C@H]21 | 1.06 µM/kg | 155 |  |
| CN1CCCC2c3cccc(O)c3CCC21 (configuration not stated) | 100 µM/kg | 40 |  |
| CCCN(CCC)[C@@H]1CCc2ccc(O)cc2C1 | 0.31 µM/kg | 46 |  |
| CN(C)C1CCc2c(O)cccc2C1 (configuration not stated) | 100 µM/kg | 52 |  |
| CNC1CCc2c(O)cccc2C1 (configuration not stated) | 100 µM/kg |  | Acc. counts (Rattus norvegicus [3]): 18 |
| CCCN1CCC[C@@H](c2ccc(O)c(O)c2)C1 | 50 µM/kg | 24 |  |
| CCCN(C)C1CCc2c(O)cccc2C1 (configuration not stated) | 2 µM/kg | 239 |  |
| CCCN(CCC)[C@@H]1Cc2cccc(O)c2C[C@H]1C | 0.31 µM/kg | 155 |  |
| CCCN1CCC[C@H](c2cccc(O)c2)C1 | 13 µM/kg | 78 |  |
| Oc1cccc2c1CC[C@@H]1NCCC[C@@H]21 | 106 µM/kg |  | Acc. counts (Rattus norvegicus [3]): 10 |
| CCNC1CCc2c(O)cccc2C1 (configuration not stated) | 2 µM/kg | 181 |  |
| Oc1cccc2c1CCC(N1CCCCC1)C2 (configuration not stated) |  |  | ED50 [4]: inactive; ED50 [5]: inactive |
| CCCN1CCC[C@H]2c3cccc(O)c3CC[C@@H]21 | 1.3 µM/kg | 62 |  |
| CN1CCCC2c3cc(O)ccc3CCC21 (configuration not stated) | 106 µM/kg | 60 |  |
| CCCCNC1CCc2c(O)cccc2C1 (configuration not stated) |  |  | Dose (Rattus norvegicus [6]): inactive; ED50 [7]: inactive; ED50 [8]: inactive |
